What was measured:
[1] = A. J. Gower et al., Eur. J. Pharmacol., 222, 1992; cited from earlier work
[2] = Solubility of the active ingredient; assay type: physicochemical
Excerpt: In fact levetiracetam is a very soluble active ingredient, so it is difficult to slow down the release. Moreover another problem consists in the reduction of the release rate, while keeping a reasonable size for a high dose of very soluble active ingredient.

| Structure (SMILES) | activity in the treatment of epilepsy [1] | solubility [2] |
| --- | --- | --- |
| CC[C@H](C(N)=O)N1CCCC1=O [(R)-(+)-alpha-ethyl-2-oxo-1-pyrrolidine acetamide] | completely lacks activity |  |
| CC[C@@H](C(N)=O)N1CCCC1=O [levetiracetam, (S)-(−)-alpha-ethyl-2-oxo-1-pyrrolidine acetamide] |  | very soluble |

Reference: patent publication US20080014264A1, “NOVEL PHARMACEUTICAL COMPOSITIONS COMPRISING LEVETIRACETAM” (UCB, S.A., priority 2006, published 2008)
